# Data: patent EP0336326A2, “3-Aminodihydrothiophene-2-one peptide derivatives, processes for the preparation and therapeutic use” (POLI INDUSTRIA CHIMICA S.p.A., priority 1988, dated 1989)
# Where two headings read alike, the source gives them in different places.
# Key:
# [1] = test system: Bordetella pertussis induced edema; test: antiinflammatory activity: Bordetella pertussis induced edema test; format: in vivo; conditions: in Rattus norvegicus, po, 24 h, read-out: reduce the edema after 24 hours
# Protocol: The antiinflammatory activity was evaluated by the test of Bordetella pertussis induced edema in the rat (F. Capasso, Agents and Actions, 11, 741, 1981).
# [2] = test system: elastase-induced emphysema; test: antiemphysema activity: pancreatic elastase induced emphysema, mean linear intercept (MLI) morphometry; format: in vivo; conditions: hamster; 0.25 mM/kg per os, during 4 weeks
# Text: The compounds of the present invention also display an interesting antiemphysema activity in the hamster (P.J. Stone et al., Amer. Rev. Respir. Dis., 124, 56, 1981). Emphysema induced by pancreatic elastase is morphometrically measured by evaluating, in µm, the mean linear intercept (MLI) (J. Kleinerman et al., Amer. Rev. Respir. Dis., 121, 381, 1980).
# [3] = mucolytic-expectorant activity: test of fluorescein elimination from the respiratory tract; format: in vivo; conditions: po; 0.5 mM/kg orally; in comparison with the controls; read-out: increase in the dye excretion
# 4% mucin suspension = test: in vitro mucolytic activity test with a 4% mucin suspension; format: biochemical; conditions: equimolar concentrations (0.00625 M), after hydrolysis with rat serum; 6250 µM
# CCl4intoxication = test: hepatoprotective activity: CCl4 intoxication test; format: in vivo; conditions: ip, rat, 0.25 mM/kg i.p.
# Protocol: The hepatoprotective activity was determined by the CCl4intoxication test in the rat (E. C. Ferreyra et al., Toxic. Appl. Pharmacol., 27, 558, 1974).
# hystamine shock = test: antibronchospastic activity: histamine shock test; format: in vivo; conditions: Cavia porcellus, ip; guinea pig; 0.25 mM/kg i.p.; compared with the basal values; read-out: increase resistance times against shock
# Protocol: The antibronchospastic activity of the compounds of the present invention was evaluated by the hystamine shock test in guinea pig (P. C. Braga et al., Min. Pneumol., 23, 447, 1984).
# [4] = in comparison with intoxicated controls, read-out: reduce serum GOT
# [5] = in comparison with the intoxicated controls, read-out: reduce serum GPT
Compound,"inhibition in vivo at 500 µM, 500 µmol/kg [1]",reduce the MLI increase in elastase-induced emphysema [2],"change in vivo at 500 µM, 500 µmol/kg [3]",reductions in viscosity (4% mucin suspension),"inhibition in vivo at 250 µM, 250 µmol/kg (CCl4intoxication; [4])","inhibition in vivo at 250 µM, 250 µmol/kg (CCl4intoxication; [5])","change in vivo at 250 µM, 250 µmol/kg (hystamine shock)"
"CC(S)C(=O)NCC(=O)NC1CCSC1=O (stereo not shown) [Compound II, 3-[(2-thiolpropionyl)glycyl]aminodihydrothiophene-2-one]",42.1%,30.6%,72%,13.4%,55.8%,52.3%,190%
"CC(S)C(=O)NCC(=O)O (stereo not shown) [tiopronin, reference compound]",28.6%,,55.8%,11.5%,42.2%,39.8%,166%
"CC(S)C(=O)NCC(=O)N1CSC[C@H]1C(=O)NC1CCSC1=O (stereo partly drawn) [Compound VI, 3-{L-3-[(2-thiolpropionyl)glycyl]thiazolidin-4-carbonyl} aminodihydrothiophene-2-one]",38.7%,35.6%,74.1%,13.4%,58.5%,52.8%,191%
"CC(=O)N[C@@H](CS)C(=O)N[C@H]1CCSC1=O [Compound IV, L-3-[(N-acetylcysteinyl)]aminodihydrothiophene-2-one]",36.7%,31.8%,68.5%,12.8%,52.7%,48.7%,180%
"CC(S)C(=O)NCC(=O)N1CSC[C@H]1C(=O)O (stereo partly drawn) [Compound VII, L-3-[(2-thiolpropionyl)glycyl]thiazolidin-4-carboxylic acid]",37.9%,34.9%,71.9%,13.6%,59.3%,51.9%,188%
"CC(=O)N[C@@H](CS)C(=O)O [N-acetyl-cysteine, reference compound]",23.2%,,45.6%,10.8%,39.9%,37.8%,168%
"CC(SC(=O)c1cccs1)C(=O)NCC(=O)N1CSC[C@H]1C(=O)NC1CCSC1=O (stereo partly drawn) [Compound VIII, 3-{L-3-[(2-thenoylthiopropionyl)glycyl]thiazolidin-4-carbonyl}aminodihydrothiophene-2-one]",38.1%,35.4%,70.8%,13.2%,60.1%,54.1%,188%
"CC(=O)N[C@@H](CSC(=O)c1cccs1)C(=O)NC1CCSC1=O (stereo partly drawn) [Compound V, 3-(N-acetyl-S-(2-thenoyl)-cysteinyl)aminodihydrothiophene-2-one]",35.8%,32.7%,67.6%,12.4%,56.1%,47.6%,181%
CC(SC(=O)c1cccs1)C(=O)NCC(=O)NC1CCSC1=O (racemic) [Compound III],41.8%,32.7%,71.3%,13.1%,54.7%,54.1%,186%
